Columns and labels:
[1] = Endotoxin binding: competitive displacement of BODIPY TR-Cadaverine from LTA; parameters: species or system Staphylococcus aureus; details: 5 μM peptide; for higher degree of LTA binding than parent peptide: vs ATRA-1 / ATRA1-R3W2; for LTA binding (BC displacement), in words: 10 μM BC, 10 μg/mL LTA, 10 mM Na-PO4
Description: FIGS. 2A-2B are graphs showing endotoxin binding. The figures depict the competitive displacement of BC from LPS/LTA by the peptides. 5 μM of each peptide was incubated with 10 μM BC and 10 μg/mL LPS from E. coli (0111:B4) or LTA from S. aureus. Fluorescence intensity was measured at excitation=580 nm and emission=620 nm. 10 μM BC without endotoxin was used as 100% displacement while 10 μM BC with 10 μg/mL LPS/LTA without any peptide as 0% displacement and the % displacement of BC by each peptide was calculated accordingly. […] had been used as a positive control. The horizontal dotted line coincides with the % displacement of BC by ATRA1 on the y-axis.
FIGS. 6A-6B are graphs showing endotoxin (LPS (FIG. 6A) and LTA (FIG. 6B)) binding. Competitive displacement of BC from LPS/LTA. In each case, 5 μM peptide was incubated with 10 μM BC and 10 μg/mL LPS from E. coli (0111:B4) or LTA from S. aureus. Fluorescence intensity was measured using excitation=580 nm and emission=620 nm. As a positive control 10 μM BC without endotoxin was used as a reference for 100% displacement while 10 μM BC with 10 μg/mL LPS/LTA without any peptide as a negative control and a reference for 0% displacement. These controls were used to calculate % BC displacement for each peptide.
Endotoxin Binding. The binding of endotoxin (LPS/LTA) was evaluated using a fluorogenic conjugateBODIPY TR-Cadaverine (BC). BC binds endotoxin loses its fluorescence. The peptide competitively displaces BC from endotoxin and the fluorescence is reestablished. Competitive inhibition of endotoxin-BC binding was utilized due to presence of peptides already in complexion with endotoxin. 25 μL of 20 μM of peptides in 10 mM Na—PO4 buffer were incubated with 25 μL of LPS (40 μg/mL) or LTA (40 μg/mL) for 15 min and then added with 50 μL of BC (20 uM). Peptides bind to LPS or LTA and competitively prevents BC bind to the endotoxin. BC loses its fluorescence on binding to endotoxin. The fluorescence intensity of the unbound BC was measured at excitation=580 nm and emission=620 nm.
BC contains two functional moieties: BODIPY (boron-dipyrromethene) and cadaverine connected via a carboxamide. BODIPY is the fluorophore of BC and fluoresces in the free state in solution but loses fluorescence when bound to LPS/LTA. The competitive displacement of BC from LPS/LTA by AMPs and thus regeneration of the fluorescence has frequently been used to estimate the binding strength of AMPs with LPS/LTA. In the present studies, 5 μM of each peptide was used to displace BC from LPS/LTA. […] Such observation contradicts the initial assumption that substitution of Lys with arginine would result in increased efficiency of LPS binding. However, with sequential substitutions of Lys with arginine, starting with ATRA1-AR, peptide variants show increased LPS binding with each additional arginine substitution. In terms of LPS binding: ATRA1-AR<ATRA1-AR2<ATRA1-AR3. In ATRA1-R3, the lysine residues at 9th, 5th and 1st positions of ATRA1 were substituted with arginine. In ATRA1-R6 all of the lysine residues were replaced with arginine.

[2] = test system: B. cereus ATCC 11778; assay: Antimicrobial efficacy (resazurin virtual colony count); type: cell-based, Bacillus cereus; details: DPBS
Description: Antimicrobial Studies. The phosphate buffers used for antimicrobial assays were supplemented with non-nitrogenous energy source, 0.1% (w/v) glucose. To conduct antimicrobial assays, bacterial strains were first suspended in respective buffers. E. coli (ATCC 25922) and B. cereus (ATCC 11778) were grown in MHB II up to OD600 nm˜1 and stored as frozen stock in 20% glycerol at −80° C. Occasionally they were thawed and enumerated by serial dilution and spreading on MHB II agar plates. The concentrations of the frozen stocks of E. coli and B. cereus strains were 1.0-1.1*10^8 CFU/mL with OD600 nm˜0.8. In case of other bacterial strains, they were grown on the days of experiment up to OD600 nm˜1-1.5 and then adjusted to OD600 nm˜0.8. The growth media of the drug-resistant bacterial strains were supplemented with few of the respective antibiotics against which they are resistant. […]
Antimicrobial assays in different phosphate buffers and serum were conducted by adapting, with necessary modifications a fast high-throughput method based on Virtual Colony Count technique and later modified by incorporating the use of resazurin. At first serial dilution of a microbial strain in respective buffer was poured in the wells of 96 well polypropylene microplate and was then added with same volume of 2× MHB II supplemented with 80 μg/mL resazurin and incubated at 35° C. in a Gemini EM Microplate Reader (Molecular Devices) overnight with intermittent shaking. As the microbe grows it reduces non-fluorescent resazurin to fluorescent resorufin and the fluorescent intensity of each well were measured (excitation=570 nm, emission=590 nm) each 5 min for 15 hours. The time (t, min) to reach a certain fluorescence (RFU=20000 with respect to the starting fluorescence) was correlated with the initial bacterial concentration (in CFU/mL) in the particular well to obtain a calibration plot of the form: Log([Bacteria],CFU/mL)=b+m*t Equation 4: […]

KRFKKFFKKLKGGVIGVTFPF (SEQ ID NO: 38) [ATRA1-HYD, ATRA1 with hydrophobic tail of NA-CATH joined at the C-terminus by a short -GG- segment]
higher degree of LTA binding than parent peptide [1]: ~2 fold

RRWKRFFKRWKGGVIGVTFPF (SEQ ID NO: 50) [ATRA1-R3W2-HYD, ATRA1-R3W2 with hydrophobic tail of NA-CATH joined by -GG-]
higher degree of LTA binding than parent peptide [1]: ~2 fold

KRFKKFFKKLKNSVKKRAKKFFKKPK (SEQ ID NO: 53) [NA-CATH26, first 26 residues of NA-CATH]
LTA binding (BC displacement), in words [1]: bound LTA to a significantly lower degree than NA-CATH

RRWKRFFKRWK (SEQ ID NO: 15) [ATRA1-R3W2]
LTA binding (BC displacement), in words [1]: far effective than ATRA1 in binding LTA

KRFKKFFKKLK (SEQ ID NO: 2) [ATRA1, first 11 residues of NA-CATH]
antimicrobial efficacy, in words [2]: somewhat effective

KRAKKFFKKLK (SEQ ID NO: 4) [ATRA1-A]
LTA binding (BC displacement), in words [1]: significantly lower LTA binding than ATRA1
antimicrobial efficacy, in words [2]: not effective

From patent publication US11447533B2, “Antimicrobial and anticancer peptides and conjugates and compositions, methods, articles and kits relating thereto” (George Mason Research Foundation, Inc., priority 2018, dated 2022)
